According to patent US20250120967A1, “TYROSINE KINASES INHIBITORS AND USES THEREOF” (GREAT NOVEL THERAPEUTICS BIOTECH & MEDICALS CORPORATION, priority 2023, published 2025):
“And” between values parts separate entries of the source, which are not always exact repeats. Equal entries are not always repeated.

Assays:
CT26 tumor = test: Experimental tumor model and therapies, CT26 tumor-bearing mice;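 also: male Balb/c mice bearing CT26 grafts in the back, treated once tumors reached roughly 250–300 mm^3, tumor volume measured twice weekly, response graded by fold growth after treatment end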
Method: LLC1 was grown at 37° C. under humidified air supplemented with CO2 in DMEM (#10-013-CM, Corning®) containing 10% heat inactivated fetal calf serum, and 1× concentration of MycoZap Antibiotics. CT26 was grown at 37° C. under humidified air supplemented with CO2 in RPMI1640 (cat. #10-040-CM, Corning®) containing 10% heat inactivated fetal calf serum, and 1× concentration of MycoZap Antibiotics. After the cancer cell culture was completed, it was implanted (1×10^6 cells/mouse) into the back of the mouse for growth.
Six- to eight-week-old male Balb/c mice (National Laboratory Animal Center, Taiwan) were used for all animal experiments. […] Tumors were allowed to grow for 10-12 days (tumor size about 250-300 mm^3) before randomization and treatment. The tumor volume of the mice was measured once every three or four days (twice/week). Animals were euthanized when tumors reached more than 3000 mm^3 in diameter. […] Relapse/recurrence was defined as when tumor growth reappeared and tumor size reached at least 5 fold in mice with CR or PR response after secondary tumor assessment. In this study, we defined Complete Response (CR, <0.5 time tumor growth in the tumor bearing mice at tumor assessment after the end of treatment); Partial Response (PR, tumor size ≥0.5 time tumor growth, but <1 time tumor growth in the tumor bearing mice at tumor assessment after the end of treatment); Stable Disease (SD, ≥1 time tumor growth, but <5 times tumor growth in the tumor bearing mice at tumor assessment after the end of treatment); and Progressive Disease (PD, ≥5 times tumor growth in the tumor bearing mice at tumor assessment after the end of treatment) for the evaluation of treatment efficacy.

RPMI-8226 = test: NCI-60 screen (SRB); format: cell-based; details: Homo sapiens; RPMI-8226, Leukemia
Summary of the method: (§1)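 RPMI 1640/5% FBS; 24 h preincubation; 5 conc. (10-fold or log dilutions), 48 h, 37 °C, 5% CO2. TCA fix, 0.4% SRB stain, solubilize in 10 mM Tris, A515. Tz plates fixed at drug addition.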

KIT = KIT (Homo sapiens, UniProt P10721); test: Tyrosine kinase inhibition assay; format: biochemical; details: single concentration 1.0 μM, read-out: percent inhibition
Chain of KIT (P10721 26-976): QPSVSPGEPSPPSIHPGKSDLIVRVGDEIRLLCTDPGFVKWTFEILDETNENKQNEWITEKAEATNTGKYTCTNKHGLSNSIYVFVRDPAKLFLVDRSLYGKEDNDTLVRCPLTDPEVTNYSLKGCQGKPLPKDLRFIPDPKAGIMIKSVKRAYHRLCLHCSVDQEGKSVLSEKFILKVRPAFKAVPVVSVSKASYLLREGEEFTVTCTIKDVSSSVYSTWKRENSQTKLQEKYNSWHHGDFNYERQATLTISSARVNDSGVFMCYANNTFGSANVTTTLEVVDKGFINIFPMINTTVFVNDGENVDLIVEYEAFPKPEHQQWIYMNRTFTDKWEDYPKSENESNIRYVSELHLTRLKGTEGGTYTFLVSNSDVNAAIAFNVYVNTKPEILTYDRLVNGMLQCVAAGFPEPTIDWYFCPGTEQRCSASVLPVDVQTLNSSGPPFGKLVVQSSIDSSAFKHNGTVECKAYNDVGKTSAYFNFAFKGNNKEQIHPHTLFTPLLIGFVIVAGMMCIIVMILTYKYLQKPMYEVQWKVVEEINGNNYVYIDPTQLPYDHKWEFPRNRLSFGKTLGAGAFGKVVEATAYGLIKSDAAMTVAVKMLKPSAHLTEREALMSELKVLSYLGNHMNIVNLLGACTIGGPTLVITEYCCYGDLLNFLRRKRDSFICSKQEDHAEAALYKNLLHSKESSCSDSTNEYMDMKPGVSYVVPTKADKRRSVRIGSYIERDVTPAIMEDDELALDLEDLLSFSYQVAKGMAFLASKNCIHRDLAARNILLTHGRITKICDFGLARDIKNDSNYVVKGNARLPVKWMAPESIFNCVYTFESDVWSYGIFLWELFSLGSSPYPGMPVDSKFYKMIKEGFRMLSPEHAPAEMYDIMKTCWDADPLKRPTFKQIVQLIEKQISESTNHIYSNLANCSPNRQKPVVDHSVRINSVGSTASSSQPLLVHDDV
Method: Tyrosine kinase inhibition assays were performed at ThermoFisher Life Technologies (Madison, WI, USA) using standard protocols (SelectScreen Biochemical Profiling Service, Thermo Fisher Scientific). ATP concentrations used were at the apparent Km. Test compounds were screened in 1% dimethylsulffoxide (DMSO) (final concentration) in the well. For 10-point titrations, 3-fold serial dilutions were conducted from the starting concentration of […]. All Peptide/Kinase Mixtures were diluted to a 2× working concentration in the appropriate Kinase Buffer. All ATP Solutions were diluted to a 4× working concentration in Kinase Buffer (50 mM HEPES pH 7.5, 0.01% BRIJ-35, 10 mM MgCl2, 1 mM EGTA). The apparent ATP Km was previously determined using a Z′-LYTE assay. The Development Reagent was diluted in Development Buffer.
The inhibition activities of compounds were determined in biochemical assays using single concentration (1.0 μM) measurements. The results were provided as percent inhibition values. […]

[1] = test system: NCI-60 human cancer cell lines; test: NCI-60 screen (SRB), panel average; format: cell-based; details: average over the NCI-60 cell lines of the table
Method: The human tumor cell lines of the cancer screening panel are grown in RPMI 1640 medium containing 5% fetal bovine serum and 2 mM L-glutamine. For a typical screening experiment, cells are inoculated into 96 well microtiter plates in 100 μL at plating densities ranging from 5,000 to 40,000 cells/well depending on the doubling time of individual cell lines. After cell inoculation, the microtiter plates are incubated at 37° C., 5% CO2, 95% air and 100% relative humidity for 24 h prior to addition of experimental drugs. After 24 h, two plates of each cell line are fixed in situ with TCA, to represent a measurement of the cell population for each cell line at the time of drug addition (Tz). Experimental drugs are solubilized in dimethyl sulfoxide at 400-fold the desired final maximum test concentration and stored frozen prior to use. At the time of drug addition, an aliquot of frozen concentrate is thawed and diluted to twice the desired final maximum test concentration with complete medium containing 50 µg/ml gentamicin. An additional four, 10-fold or M log serial dilutions are made to provide a total of five drug concentrations plus control. Aliquots of 100 μl of these different drug dilutions are added to the appropriate microtiter wells already containing 100 μl of medium, resulting in the required final drug concentrations. Following drug addition, the plates are incubated for an additional 48 h at 37° C., 5% CO2, 95% air, and 100% relative humidity. For adherent cells, the assay is terminated by the addition of cold TCA. Cells are fixed in situ by the gentle addition of 50 μl of cold 50% (w/v) TCA (final concentration, 10% TCA) and incubated for 60 minutes at 4° C. The supernatant is discarded, and the plates are washed five times with tap water and air dried. Sulforhodamine B (SRB) solution (100 l) at 0.4% (w/v) in 1% acetic acid is added to each well, and plates are incubated for 10 minutes at room temperature. […] Bound stain is subsequently solubilized with 10 mM trizma base, and the absorbance is read on an automated plate reader at a wavelength of 515 nm. […]

SNB-75 = test: NCI-60 screen (SRB); format: cell-based; details: Homo sapiens; SNB-75, CNS Cancer
Summary of the method: as §1

LLC1 = test: Tumor rechallenge test, LLC1 rechallenge; format: in vivo; details: Table 9, LLC1 rechallenge, GNTbm-38-K30 20 mg/kg, Regorafenib 30 mg/kg, Cbo-23 30 mg/kg
Method: (§2) Mice evaluated as CR/PR can enter the rechallenge study. All mice with PR/CR response went through rechallenges with CT26 cells on the contralateral side. The first rechallenge was performed after second assessment with a tumor dose of 1×10^6 cells per mouse. After 7 days of growth, CT26 and LLC1 tumor sizes were used as the baseline. Tumor growth was monitored for a duration of 11 days, and on the 11th day, a tumor size assessment was conducted relative to the baseline. If both of the following criteria are met, the response will be considered as relapse: first, the tumor size was over 1.5 folds when compared to that of baseline; second, the tumor volume was over 150 mm^3.
(§3) If both of the following criteria are met, the response will be considered as relapse: first, the tumor size over 1.5 folds when compared to that of baseline; second, the tumor volume at day 67 was over 150 mm^3.
(§4) If both of the following criteria are met, the response will be considered as relapse: first, the tumor size was over 1.5 folds when compared to that of baseline; second, the tumor volume at day 56 was over 150 mm^3.

CT26 cells = test: Tumor rechallenge test, CT26 rechallenge; format: in vivo, Balb/c mice; details: Table 9, CT26 rechallenge, GNTbm-38-K30 20 mg/kg, Regorafenib 30 mg/kg, Cbo-23 30 mg/kg
Method: as §2, §3, §4

[2] = FIG. 2E, oral once daily, Cabozantinib 30 mg/kg, Cbo-02 30 mg/kg, Chidamide-K30 50 mg/kg
[3] = FIG. 3E, oral 12 days, Cabozantinib 30 mg/kg, Cbo-20 30 mg/kg, GNTbm-38-K30 40 mg/kg
[4] = FIG. 6E, Cbo-23 30 mg/kg, Cabozantinib 30 mg/kg, GNTbm-38-K30 20 mg/kg
[5] = FIG. 6F, Cbo-23 30 mg/kg, Cabozantinib 30 mg/kg, GNTbm-38-K30 20 mg/kg
[6] = FIG. 5E, Cbo-23 30 mg/kg, Regorafenib 30 mg/kg, GNTbm-38-K30 20 mg/kg in combination, 5 mg/kg alone

SMILES	ORR (CT26 tumor; [2])	CR (number of mice) (CT26 tumor; [4])	ORR (CT26 tumor; [4])	PD (number of mice) (CT26 tumor; [4])	PR (number of mice) (CT26 tumor; [4])	Survival Rate (CT26 tumor; [5])	GI50 (RPMI-8226)	inhibition at 1 µM (KIT)	GI50 [1]	GI50 (SNB-75)	further results
COc1cc2nccc(Oc3ccc(NC(=O)C4(C(=O)Nc5ccc(F)cc5)CC4)cc3)c2cc1OC [Cabozantinib, reference compound]	0%	3	44%	2	1	33%	–	–	–	–	CR (number of mice) (CT26 tumor; [3]): 0; ORR (CT26 tumor; [3]): 0%; PD (number of mice) (CT26 tumor; [3]): 5; PR (number of mice) (CT26 tumor; [3]): 0; Survival Rate (CT26 tumor; FIG. 3F, Cabozantinib 30 mg/kg, Cbo-20 30 mg/kg, GNTbm-38-K30 40 mg/kg): 0%; ORR (CT26 tumor; FIG. 4D, Cabozantinib 30 mg/kg, Cbo-22 30 mg/kg, GNTbm-38-K30 40 mg/kg): 0%; Survival Rate (CT26 tumor; FIG. 4E, Cabozantinib 30 mg/kg, Cbo-22 30 mg/kg, GNTbm-38-K30 40 mg/kg): 0%
COc1cc2nccc(Oc3ccc(NC(=O)C4(NC(=O)c5ccc(F)cc5)CC4)cc3F)c2cc1OC [Cbo-02, N-(1-((4-((6,7-diMethoxyquinolin-4-yl)oxy)-3-fluorophenyl)carbamoyl)cyclopropyl)-4-fluorobenzamide]	10%	–	–	–	–	–	4.57 µM	33%	2560 nM	–	–
COc1cc2nccc(Oc3ccc(NC(=O)C4(NC(=O)c5ccc(F)cc5)CC4)cc3F)c2cc1Oc1ccc(N)cc1F [Cbo-10]	–	–	–	–	–	–	2.99 µM	48%	1570 nM	> 100000 nM	–
COc1cc2nccc(Oc3ccc(NC(=O)C4(NC(=O)c5ccc(F)cc5)CC4)cc3F)c2cc1Oc1c(F)cc(N)cc1F [Cbo-14]	–	–	–	–	–	–	–	45%	–	–	–
COc1cc2nccc(Oc3ccc(NC(=O)C4(C(=O)Nc5ccc(F)cc5)CC4)cc3F)c2cc1Oc1ccc(N)cc1F [Cbo-23]	–	3	30%	7	0	20%	–	51%	730 nM	178 nM	CR (number of mice) (CT26 tumor; [6]): 2; ORR (CT26 tumor; [6]): 22%; PD (number of mice) (CT26 tumor; [6]): 7; PR (number of mice) (CT26 tumor; [6]): 0; Survival Rate (CT26 tumor; FIG. 5F, Cbo-23 30 mg/kg, Regorafenib 30 mg/kg, GNTbm-38-K30 20 mg/kg in combination, 5 mg/kg alone): 11%; recurrence rate (CT26 tumor; FIG. 5G, day 60, Cbo-23 30 mg/kg, Regorafenib 30 mg/kg, GNTbm-38-K30 20 mg/kg in combination, 5 mg/kg alone): 50%; Day 56 Fold change (LLC1; individual mice, vs Day 45): 2.5 and 1.0; Day 45 mm^3 (baseline tumor size) (LLC1; individual mice): 163.76 mm^3 and 173.53 mm^3; Day 56 mm^3 (LLC1; individual mice): 403.54 mm^3 and 169.80 mm^3; Score (LLC1; individual mice): + (If both of the following criteria are met, the response will be considered as relapse: first, the tumor size was over 1.5 folds when compared to that of baseline; second, the tumor volume at day 56 was over 150 mm^3.); Immunity Percentage (LLC1): 50% (1/2); Day 56 Fold change (CT26 cells; individual mice, vs Day 45): 2.6 and 0; Day 45 mm^3 (baseline tumor size) (CT26 cells; individual mice): 119.17 mm^3 and 60.82 mm^3; Day 56 mm^3 (CT26 cells; individual mice): 309.20 mm^3 and 0 mm^3; Score (CT26 cells; individual mice): + (If both of the following criteria are met, the response will be considered as relapse: first, the tumor size was over 1.5 folds when compared to that of baseline; second, the tumor volume at day 56 was over 150 mm^3.); Immunity Percentage (CT26 cells): 50% (1/2)
